Laboratory results as given in US20230123334A1, “AMINO LIPID COMPOUND, PREPARATION METHOD THEREFOR, AND APPLICATION THEREOF” (SHENZHEN SHENXIN BIOTECHNOLOGY CO., LTD., priority 2020, published 2023).

System: HEK293 cells
Experiment: Preliminary screening as mRNA vectors, EGFP mRNA transfection of HEK293 cells
Type: cell-based
Settings: EGFP mRNA 50 ng per well, 96-well plates; percentage of GFP fluorescent cells relative to total number of cells (Hoechst)
How it was run: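 HEK293 cells in DMEM plus 10% FBS transfected in 96-well format with 50 ng EGFP mRNA per well; Lipofectamine2000 served as positive control. Read-out is the percentage of GFP-fluorescent cells among total cells, counted by Hoechst nuclear stain.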

## CCCCCCCCCCCCSc1nc(NCCCCCCCC)nc(NCC2CCN(C)CC2)n1 [Compound D10S12N8]
  Absolute mRNA transfection efficiency in HEK293 cells: 12.9%

## CCCCCCCCCCCCCCCCSc1nc(NCCCCCCCCCCC)nc(NCC2CCN(C)CC2)n1 [Compound D10S16N11]
  Absolute mRNA transfection efficiency in HEK293 cells: 37.8%

## CCCCCCCCCCSc1nc(NCCCCCC)nc(NCCN2CCN(C)CC2)n1 [Compound D5S10N6]
  Absolute mRNA transfection efficiency in HEK293 cells: 1.1%

## CCCCCCCCCCCNc1nc(NCCN2CCCCC2)nc(SCCCCCCCCCCC)n1 [Compound D4S11N11]
  Absolute mRNA transfection efficiency in HEK293 cells: 2.0%

## CCCCCCCCCCCCCCCCNc1nc(NCCN2CCCC2)nc(SCCCCCCC)n1 [Compound D3S7N16]
  Absolute mRNA transfection efficiency in HEK293 cells: 25.0%

## CCCCCCCSc1nc(NCCCCCC)nc(NCCN2CCCCC2)n1 [Compound D4S7N6]
  Absolute mRNA transfection efficiency in HEK293 cells: 4.5%

## CCCCCCCCCCCCCNc1nc(NCCN2CCN(C)CC2)nc(SCCCCCC)n1 [Compound D5S6N13]
  Absolute mRNA transfection efficiency in HEK293 cells: 7.2%

## CCCCCCCCCCCSc1nc(NCCCN(C)C)nc(SCCCCCCCC)n1 [Compound D6S8S11]
  Absolute mRNA transfection efficiency in HEK293 cells: 92.3%

## CCCCCCCCCCSc1nc(NCCN(C)C)nc(SCCCCCCCC)n1 [Compound D1S8S10]
  Absolute mRNA transfection efficiency in HEK293 cells: 8.6%

## CCCCCCCCCCCCCCSc1nc(NCCCN2CCN(C)CC2)nc(SCCCCCC)n1 [Compound D9S6S14]
  Absolute mRNA transfection efficiency in HEK293 cells: 35.8%

## CCCCCCCCCCCCCCCCSc1nc(NCCCN2CCOCC2)nc(SCCCCCCC)n1 [Compound D8S7S16]
  Absolute mRNA transfection efficiency in HEK293 cells: 22.7%

## CCCCCCCCNc1nc(NCCCN(C)C)nc(SCCCCCCC)n1 [Compound D6S7N8]
  Absolute mRNA transfection efficiency in HEK293 cells: 2.8%

## CCCCCCCCCCCCNc1nc(NCCN2CCN(C)CC2)nc(SCCCCCCCCCCC)n1 [Compound D5S11N12]
  Absolute mRNA transfection efficiency in HEK293 cells: 22.8%

## CCCCCCCCCCCCCCCSc1nc(NCCCCCCCC)nc(NCCN(C)C)n1 [Compound D1S15N8]
  Absolute mRNA transfection efficiency in HEK293 cells: 98.3%

## CCCCCCCCCCCCCCSc1nc(NCCN2CCCCC2)nc(N(CCCCCCCCCCCC)CCCCCCCCCCCC)n1 [D4S14^2N12]
  Absolute mRNA transfection efficiency in HEK293 cells: 0.2%

## CCCCCCCCCNc1nc(NCCCN(C)C)nc(SCCCCCCCC)n1 [Compound D6S8N9]
  Absolute mRNA transfection efficiency in HEK293 cells: 6.7%

## CCCCCCCCCSc1nc(NCCCCCCC)nc(NCCCN2CCOCC2)n1 [Compound D8S9N7]
  Absolute mRNA transfection efficiency in HEK293 cells: 2.2%

## CCCCCCCCCCCCCCCCCCNc1nc(NCCN(CC)CC)nc(SCCCCCCCCCCCCCCC)n1 [Compound D7S15N18]
  Absolute mRNA transfection efficiency in HEK293 cells: 0.8%

## CCCCCCNc1nc(NCCN(CC)CC)nc(SCCCCCC)n1 [Compound D7S6N6]
  Absolute mRNA transfection efficiency in HEK293 cells: 1.2%

## CCCCCCCCCCCCCCCCSc1nc(NCCCCCCCCCCC)nc(NCCN2CCOCC2)n1 [Compound D2S16N11]
  Absolute mRNA transfection efficiency in HEK293 cells: 4.1%

## CCCCCCCCCSc1nc(NCCN2CCCCC2)nc(SCCCCCCCC)n1 [Compound D4S8S9]
  Absolute mRNA transfection efficiency in HEK293 cells: 14.3%

## CCCCCCCCCCCCSc1nc(NCCCCCCCCC)nc(NCCN(C)C)n1 [Compound D1S12N9]
  Absolute mRNA transfection efficiency in HEK293 cells: 34.2%

## CCCCCCCCCCSc1nc(NCCCCCCCC)nc(NCCN2CCN(C)CC2)n1 [Compound D5S10N8]
  Absolute mRNA transfection efficiency in HEK293 cells: 8.6%

## CCCCCCCCCCCCN(CCCCCCCCCCCC)c1nc(NCCN2CCN(C)CC2)nc(SCCCCCCCC)n1 [D5S8^2N12]
  Absolute mRNA transfection efficiency in HEK293 cells: 0.9%

## CCCCCCCCCCCCCCCCCCNc1nc(NCCN(CC)CC)nc(SCCCCCCCCCCCC)n1 [Compound D7S12N18]
  Absolute mRNA transfection efficiency in HEK293 cells: 1.1%

## CCCCCCCCCCCCCCCSc1nc(NCCCCCC)nc(NCC2CCN(C)CC2)n1 [Compound D10S15N6]
  Absolute mRNA transfection efficiency in HEK293 cells: 18.4%

## CCCCCCCCCCCCNc1nc(NCCN(CC)CC)nc(SCCCCCCCC)n1 [Compound D7S8N12]
  Absolute mRNA transfection efficiency in HEK293 cells: 9.5%

## CCCCCCCCCCCCCCCCSc1nc(NCCN(C)C)nc(SCCCCCCC)n1 [Compound D1S7S16]
  Absolute mRNA transfection efficiency in HEK293 cells: 6.9%

## CCCCCCCCCCCCCCCCCCNc1nc(NCC2CCN(C)CC2)nc(SCCCCCCCC)n1 [Compound D10S8N18]
  Absolute mRNA transfection efficiency in HEK293 cells: 20.1%

## CCCCCCCCCCCCCCSc1nc(NCCCCCCCCCCCC)nc(NCCN(C)C)n1 [Compound D1S14N12]
  Absolute mRNA transfection efficiency in HEK293 cells: 9.6%

## CCCCCCCCCCCCCCCCCCSc1nc(NCCCCCCCC)nc(NCCCN2CCN(C)CC2)n1 [Compound D9S18N8]
  Absolute mRNA transfection efficiency in HEK293 cells: 25.8%

## CCCCCCCCCCCCCCCCSc1nc(NCCCCCCCCCCCCC)nc(NCCN2CCN(C)CC2)n1 [Compound D5S16N13]
  Absolute mRNA transfection efficiency in HEK293 cells: 0.7%

## CCCCCCCCCCCCCCCNc1nc(NCCN2CCCCC2)nc(SCCCCCCCCCCC)n1 [Compound D4S11N15]
  Absolute mRNA transfection efficiency in HEK293 cells: 17.0%

## CCCCCCCCCCCCCCCCCCNc1nc(NCCN(CC)CC)nc(SCCCCCCCC)n1 [Compound D7S8N18]
  Absolute mRNA transfection efficiency in HEK293 cells: 12.8%

## CCCCCCCCCCCCSc1nc(NCC2CCN(C)CC2)nc(SCCCCCCC)n1 [Compound D10S7S12]
  Absolute mRNA transfection efficiency in HEK293 cells: 80.4%

## CCCCCCCCCCCCCCCCCCNc1nc(NCC2CCN(C)CC2)nc(SCCCCCCCCCCCCCC)n1 [Compound D10S14N18]
  Absolute mRNA transfection efficiency in HEK293 cells: 2.6%

## CCCCCCCCCCCCCCCCNc1nc(NCCN2CCCCC2)nc(SCCCCCCCCCCCCCCCC)n1 [Compound D4S16N16]
  Absolute mRNA transfection efficiency in HEK293 cells: 3.6%

## CCCCCCCCNc1nc(NCCN(CC)CC)nc(SCCCCCCC)n1 [Compound D7S7N8]
  Absolute mRNA transfection efficiency in HEK293 cells: 3.5%

## CCCCCCCCCCCCCCCSc1nc(NCCN(C)C)nc(N(CCCCCCCCCCCC)CCCCCCCCCCCC)n1 [D1S15^2N12]
  Absolute mRNA transfection efficiency in HEK293 cells: 0.3%

## CCCCCCCCCNc1nc(NCCN2CCCC2)nc(SCCCCCCCCC)n1 [Compound D3S9N9]
  Absolute mRNA transfection efficiency in HEK293 cells: 15.4%

## CCCCCCCCCCCSc1nc(NCCCCCC)nc(NCCCN2CCOCC2)n1 [Compound D8S11N6]
  Absolute mRNA transfection efficiency in HEK293 cells: 2.8%

## CCCCCCSc1nc(NCCN2CCCCC2)nc(SCCCCCC)n1 [Compound D4S6S6]
  Absolute mRNA transfection efficiency in HEK293 cells: 0.9%

## CCCCCCCCCCCSc1nc(NCCN2CCN(C)CC2)nc(SCCCCCCC)n1 [Compound D5S7S11]
  Absolute mRNA transfection efficiency in HEK293 cells: 42.0%

## CCCCCCCCSc1nc(NCCN(CC)CC)nc(SCCCCCCCC)n1 [Compound D7S8S8]
  Absolute mRNA transfection efficiency in HEK293 cells: 25.3%

## CCCCCCCCCCCCSc1nc(NCCCCCCCCCCC)nc(NCCN2CCOCC2)n1 [Compound D2S12N11]
  Absolute mRNA transfection efficiency in HEK293 cells: 0.3%

## CCCCCCCCCCSc1nc(NCCCCCCCC)nc(NCC2CCN(C)CC2)n1 [Compound D10S10N8]
  Absolute mRNA transfection efficiency in HEK293 cells: 1.7%

## CCCCCCCCCCCNc1nc(NCCN2CCCC2)nc(SCCCCCCC)n1 [Compound D3S7N11]
  Absolute mRNA transfection efficiency in HEK293 cells: 9.6%

## CCCCCCCCSc1nc(NCCN2CCOCC2)nc(SCCCCCCC)n1 [Compound D2S7S8]
  Absolute mRNA transfection efficiency in HEK293 cells: 35.6%

## CCCCCCCCCCCCCNc1nc(NCC2CCN(C)CC2)nc(SCCCCCCC)n1 [Compound D10S7N13]
  Absolute mRNA transfection efficiency in HEK293 cells: 70.8%

## CCCCCCCCCCSc1nc(NCCCCCCCC)nc(NCCCN2CCOCC2)n1 [Compound D8S10N8]
  Absolute mRNA transfection efficiency in HEK293 cells: 0.4%
